From paper PMC4255919 (Nature, 2014) come the findings set out here.

For assay [1], the target named is T1, GluCl (C. elegans GluClα, GluClcryst) (Caenorhabditis elegans, UniProt G5EBR3, INS363AGT/DEL364-421).
T1 sequence (G5EBR3 with tags, fused parts or gaps INS363AGT/DEL364-421): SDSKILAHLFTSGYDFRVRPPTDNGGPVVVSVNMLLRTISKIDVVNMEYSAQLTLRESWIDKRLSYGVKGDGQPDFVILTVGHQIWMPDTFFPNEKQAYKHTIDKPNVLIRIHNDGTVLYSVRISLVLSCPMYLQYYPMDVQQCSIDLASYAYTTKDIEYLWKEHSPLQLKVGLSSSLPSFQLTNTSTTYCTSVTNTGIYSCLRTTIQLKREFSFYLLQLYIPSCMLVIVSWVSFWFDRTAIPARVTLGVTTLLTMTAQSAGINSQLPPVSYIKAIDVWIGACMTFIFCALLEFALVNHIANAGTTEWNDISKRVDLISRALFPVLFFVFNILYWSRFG
Briefly: X-ray crystal structure at […] Å. It is filed as binding.

The target in assay [2] is GluCl (C. elegans GluClα, GluClcryst) (Caenorhabditis elegans, UniProt G5EBR3, DEL364-421/INS363AGT). Briefly: radioligand competition with [3H]-ivermectin. Type of assay: binding. Background: In a radioligand displacement assay an active substance lowers the binding of a labelled ligand.

SMILES strings stand for the structures.

For `CCCCCCCC/C=C\CCCCCCCC(=O)O[C@@H](COC(=O)CCCCCCCCCCCCCCC)COP(=O)([O-])OCC[N+](C)(C)C` [POPC, 1-palmitoyl-2-oleoyl-sn-glycero-3-phosphocholine], the “X-ray crystal structure at 3.2 Å” value in assay [1] is listed as “We modeled these densities as POPC molecules with the phosphocholine head group pointing towards the center of the pore”. As usually defined, the Ki is a dissociation constant, usually derived from enzyme kinetics or from competition with a known ligand. Compound `CCCCCCCC/C=C\CCCCCCCC(=O)O[C@H](COC(=O)CCCCCCCCCCCCCCC)COP(=O)(O)OC[C@H](N)C(=O)O` [POPS, 1-palmitoyl-2-oleoyl-sn-glycero-3-phosphoserine] had a Ki in assay [2] of 167 µM.
